ChEMBL document CHEMBL1909046, “DrugMatrix in vitro pharmacology data”

Test system: not listed separately
Assay: DRUGMATRIX: Glutamate, Kainate radioligand binding (ligand: [3H] Kainic acid)
Assay type: cell membranes, Rattus norvegicus, Wistar, Brain, Membrane
Settings: Not Active = under 50% inhibition at 10 µM
With `CCN1CCN(c2cc3c(cc2F)c(=O)c(C(=O)O)cn3C2CC2)CC1` [ENROFLOXACIN] the IC50 was “Not Active” and the Ki was “Not Active”.
For `CC(C)Cc1ccc([C@H](C)C(=O)O)cc1` [DEXIBUPROFEN], the IC50 was “Not Active” and the Ki was “Not Active”.
For `CO[C@H]1O[C@@H]2O[C@@]3(C)CC[C@H]4[C@H](C)CC[C@@H]([C@H]1C)[C@@]24OO3`, the IC50 was “Not Active” and the Ki was “Not Active”.
In the case of `Nc1ccc(C(=O)O)c(O)c1` [AMINOSALICYLIC ACID], the IC50 is reported as “Not Active” and the Ki is reported as “Not Active”.
With `Nc1nc(F)nc2c1ncn2[C@@H]1O[C@H](CO)[C@@H](O)[C@@H]1O` [FLUDARABINE] the IC50 was “Not Active” and the Ki was “Not Active”.

Biological target: T1, Alpha-1A adrenergic receptor (Rattus norvegicus, UniProt P43140)
T1 sequence (P43140 whole entry): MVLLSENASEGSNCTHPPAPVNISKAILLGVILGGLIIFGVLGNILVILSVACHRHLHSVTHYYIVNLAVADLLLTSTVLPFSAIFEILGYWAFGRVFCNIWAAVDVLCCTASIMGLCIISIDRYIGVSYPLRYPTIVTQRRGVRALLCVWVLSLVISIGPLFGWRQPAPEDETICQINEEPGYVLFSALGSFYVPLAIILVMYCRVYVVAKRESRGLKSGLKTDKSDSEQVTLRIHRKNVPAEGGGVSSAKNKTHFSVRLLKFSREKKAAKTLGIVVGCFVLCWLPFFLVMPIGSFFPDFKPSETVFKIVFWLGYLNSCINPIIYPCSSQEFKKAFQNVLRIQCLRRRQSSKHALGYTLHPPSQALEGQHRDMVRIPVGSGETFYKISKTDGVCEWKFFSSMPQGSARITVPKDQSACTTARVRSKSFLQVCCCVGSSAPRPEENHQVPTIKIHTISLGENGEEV
Assay: DRUGMATRIX: Alpha-1A adrenergic receptor radioligand binding (ligand: prazosin)
Assay type: cell membranes, Wistar, Submaxillary gland, Membrane
Settings: Not Active = under 50% inhibition at 10 µM
In the case of `CCN1CCN(c2cc3c(cc2F)c(=O)c(C(=O)O)cn3C2CC2)CC1` [ENROFLOXACIN], the IC50 is reported as “Not Active”.
With `CC(C)Cc1ccc([C@H](C)C(=O)O)cc1` [DEXIBUPROFEN] the IC50 was “Not Active”.
With `CO[C@H]1O[C@@H]2O[C@@]3(C)CC[C@H]4[C@H](C)CC[C@@H]([C@H]1C)[C@@]24OO3` the IC50 was “Not Active”.
With `Nc1ccc(C(=O)O)c(O)c1` [AMINOSALICYLIC ACID] the IC50 was “Not Active”.
In the case of `Nc1nc(F)nc2c1ncn2[C@@H]1O[C@H](CO)[C@@H](O)[C@@H]1O` [FLUDARABINE], the IC50 is reported as “Not Active”.

Biological target: Cytochrome P450 2C9 (Homo sapiens, UniProt P11712); note: in other assays of this panel Not Active means under 50% inhibition at 10 µM
Sequence (P11712 whole entry): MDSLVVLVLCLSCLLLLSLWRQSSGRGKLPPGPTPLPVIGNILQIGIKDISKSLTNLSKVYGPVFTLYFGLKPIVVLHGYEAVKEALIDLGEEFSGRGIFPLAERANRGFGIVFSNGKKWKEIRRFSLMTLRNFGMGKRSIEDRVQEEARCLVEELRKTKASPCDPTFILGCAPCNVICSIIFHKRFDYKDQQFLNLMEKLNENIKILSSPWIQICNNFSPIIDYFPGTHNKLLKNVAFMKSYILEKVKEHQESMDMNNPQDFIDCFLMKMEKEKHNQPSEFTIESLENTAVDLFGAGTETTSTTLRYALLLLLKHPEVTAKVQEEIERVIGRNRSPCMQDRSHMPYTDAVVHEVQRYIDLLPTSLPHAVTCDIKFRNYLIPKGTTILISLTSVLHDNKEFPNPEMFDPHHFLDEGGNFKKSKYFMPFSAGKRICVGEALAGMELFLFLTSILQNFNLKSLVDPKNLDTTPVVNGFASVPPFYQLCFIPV
Assay: not given
Settings: bti-tn-5b1-4
For `CCN1CCN(c2cc3c(cc2F)c(=O)c(C(=O)O)cn3C2CC2)CC1` [ENROFLOXACIN], the IC50 was “Not Active” and the Ki was “Not Active”.
With `CC(C)Cc1ccc([C@H](C)C(=O)O)cc1` [DEXIBUPROFEN] the IC50 was “Not Active” and the Ki was “Not Active”.
In the case of `CO[C@H]1O[C@@H]2O[C@@]3(C)CC[C@H]4[C@H](C)CC[C@@H]([C@H]1C)[C@@]24OO3`, the IC50 is reported as “Not Active” and the Ki is reported as “Not Active”.
In the case of `Nc1ccc(C(=O)O)c(O)c1` [AMINOSALICYLIC ACID], the IC50 is reported as “Not Active” and the Ki is reported as “Not Active”.
For `Nc1nc(F)nc2c1ncn2[C@@H]1O[C@H](CO)[C@@H](O)[C@@H]1O` [FLUDARABINE], the IC50 was “Not Active” and the Ki was “Not Active”.

Test system: not listed separately
Assay: DRUGMATRIX: Interleukin IL-1 radioligand binding (ligand: [125I] interleukin 1beta)
Assay type: cell membranes, Membrane
Settings: nih3t3; Not Active = under 50% inhibition at 10 µM
In the case of `CCN1CCN(c2cc3c(cc2F)c(=O)c(C(=O)O)cn3C2CC2)CC1` [ENROFLOXACIN], the IC50 is reported as “Not Active” and the Ki is reported as “Not Active”.
In the case of `CC(C)Cc1ccc([C@H](C)C(=O)O)cc1` [DEXIBUPROFEN], the IC50 is reported as “Not Active” and the Ki is reported as “Not Active”.
With `CO[C@H]1O[C@@H]2O[C@@]3(C)CC[C@H]4[C@H](C)CC[C@@H]([C@H]1C)[C@@]24OO3` the IC50 was “Not Active” and the Ki was “Not Active”.
With `Nc1ccc(C(=O)O)c(O)c1` [AMINOSALICYLIC ACID] the IC50 was “Not Active” and the Ki was “Not Active”.
With `Nc1nc(F)nc2c1ncn2[C@@H]1O[C@H](CO)[C@@H](O)[C@@H]1O` [FLUDARABINE] the IC50 was “Not Active” and the Ki was “Not Active”.

Biological target: T2, Progesterone receptor (Bos taurus, UniProt Q690N0)
T2 sequence (Q690N0 whole entry): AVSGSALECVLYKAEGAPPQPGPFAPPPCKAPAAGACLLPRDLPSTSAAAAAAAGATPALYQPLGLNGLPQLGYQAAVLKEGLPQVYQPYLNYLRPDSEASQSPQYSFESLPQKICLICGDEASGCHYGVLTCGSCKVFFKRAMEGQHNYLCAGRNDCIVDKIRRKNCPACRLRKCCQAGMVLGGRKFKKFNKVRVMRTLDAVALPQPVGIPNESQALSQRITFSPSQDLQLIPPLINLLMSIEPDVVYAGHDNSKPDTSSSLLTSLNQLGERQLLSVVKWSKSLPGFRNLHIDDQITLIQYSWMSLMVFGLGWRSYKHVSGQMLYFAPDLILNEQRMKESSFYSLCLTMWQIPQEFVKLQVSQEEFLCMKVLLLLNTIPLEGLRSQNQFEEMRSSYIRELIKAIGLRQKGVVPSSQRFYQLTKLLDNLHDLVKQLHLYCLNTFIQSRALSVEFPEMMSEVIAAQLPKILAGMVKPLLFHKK
Assay: DRUGMATRIX: Progesterone radioligand binding (ligand: [3H] R-5020)
Assay type: tissue-based, Uterus
Settings: Not Active = under 50% inhibition at 10 µM
For `CCN1CCN(c2cc3c(cc2F)c(=O)c(C(=O)O)cn3C2CC2)CC1` [ENROFLOXACIN], the IC50 was “Not Active”.
For `CC(C)Cc1ccc([C@H](C)C(=O)O)cc1` [DEXIBUPROFEN], the IC50 was “Not Active”.
For `CO[C@H]1O[C@@H]2O[C@@]3(C)CC[C@H]4[C@H](C)CC[C@@H]([C@H]1C)[C@@]24OO3`, the IC50 was “Not Active”.
For `Nc1ccc(C(=O)O)c(O)c1` [AMINOSALICYLIC ACID], the IC50 was “Not Active”.
In the case of `Nc1nc(F)nc2c1ncn2[C@@H]1O[C@H](CO)[C@@H](O)[C@@H]1O` [FLUDARABINE], the IC50 is reported as “Not Active”.

Test system: not listed separately
Assay: DRUGMATRIX: Potassium Channel [KATP] radioligand binding (ligand: [3H] Glyburide)
Assay type: cell membranes, Membrane
Settings: hit-t15; Not Active = under 50% inhibition at 10 µM
With `CCN1CCN(c2cc3c(cc2F)c(=O)c(C(=O)O)cn3C2CC2)CC1` [ENROFLOXACIN] the IC50 was “Not Active” and the Ki was “Not Active”.
For `CC(C)Cc1ccc([C@H](C)C(=O)O)cc1` [DEXIBUPROFEN], the IC50 was “Not Active” and the Ki was “Not Active”.
With `CO[C@H]1O[C@@H]2O[C@@]3(C)CC[C@H]4[C@H](C)CC[C@@H]([C@H]1C)[C@@]24OO3` the IC50 was “Not Active” and the Ki was “Not Active”.
For `Nc1ccc(C(=O)O)c(O)c1` [AMINOSALICYLIC ACID], the IC50 was “Not Active” and the Ki was “Not Active”.
With `Nc1nc(F)nc2c1ncn2[C@@H]1O[C@H](CO)[C@@H](O)[C@@H]1O` [FLUDARABINE] the IC50 was “Not Active” and the Ki was “Not Active”.

Biological target: T3, Interstitial collagenase (Homo sapiens, UniProt P03956);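 note: MMP-1 enzyme inhibition assay using a peptide substrate; in other assays of this panel Not Active means under 50% inhibition at 10 µM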
T3 sequence (P03956 whole entry): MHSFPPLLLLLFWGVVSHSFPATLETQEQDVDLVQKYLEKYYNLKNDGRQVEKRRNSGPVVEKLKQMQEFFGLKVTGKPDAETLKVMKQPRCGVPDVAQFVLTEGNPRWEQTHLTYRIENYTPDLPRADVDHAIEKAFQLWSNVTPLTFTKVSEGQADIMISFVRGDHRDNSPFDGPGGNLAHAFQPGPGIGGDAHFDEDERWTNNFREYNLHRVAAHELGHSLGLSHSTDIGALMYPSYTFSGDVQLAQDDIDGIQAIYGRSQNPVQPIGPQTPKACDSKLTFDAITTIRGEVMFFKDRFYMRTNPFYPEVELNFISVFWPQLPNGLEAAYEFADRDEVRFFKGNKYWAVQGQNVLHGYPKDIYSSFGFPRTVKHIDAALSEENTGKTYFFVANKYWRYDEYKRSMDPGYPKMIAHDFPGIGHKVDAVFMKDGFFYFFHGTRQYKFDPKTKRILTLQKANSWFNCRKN
Assay: biochemical
Assay type: tissue-based, Rheumatoid synovial fibroblasts
Settings: not given
For `CCN1CCN(c2cc3c(cc2F)c(=O)c(C(=O)O)cn3C2CC2)CC1` [ENROFLOXACIN], the IC50 was “Not Active”.
With `CC(C)Cc1ccc([C@H](C)C(=O)O)cc1` [DEXIBUPROFEN] the IC50 was “Not Active”.
In the case of `CO[C@H]1O[C@@H]2O[C@@]3(C)CC[C@H]4[C@H](C)CC[C@@H]([C@H]1C)[C@@]24OO3`, the IC50 is reported as “Not Active”.
With `Nc1ccc(C(=O)O)c(O)c1` [AMINOSALICYLIC ACID] the IC50 was “Not Active”.
With `Nc1nc(F)nc2c1ncn2[C@@H]1O[C@H](CO)[C@@H](O)[C@@H]1O` [FLUDARABINE] the IC50 was “Not Active”.

Biological target: Cytochrome P450 2C19 (Homo sapiens, UniProt P33261); note: in other assays of this panel Not Active means under 50% inhibition at 10 µM
Sequence (P33261 whole entry): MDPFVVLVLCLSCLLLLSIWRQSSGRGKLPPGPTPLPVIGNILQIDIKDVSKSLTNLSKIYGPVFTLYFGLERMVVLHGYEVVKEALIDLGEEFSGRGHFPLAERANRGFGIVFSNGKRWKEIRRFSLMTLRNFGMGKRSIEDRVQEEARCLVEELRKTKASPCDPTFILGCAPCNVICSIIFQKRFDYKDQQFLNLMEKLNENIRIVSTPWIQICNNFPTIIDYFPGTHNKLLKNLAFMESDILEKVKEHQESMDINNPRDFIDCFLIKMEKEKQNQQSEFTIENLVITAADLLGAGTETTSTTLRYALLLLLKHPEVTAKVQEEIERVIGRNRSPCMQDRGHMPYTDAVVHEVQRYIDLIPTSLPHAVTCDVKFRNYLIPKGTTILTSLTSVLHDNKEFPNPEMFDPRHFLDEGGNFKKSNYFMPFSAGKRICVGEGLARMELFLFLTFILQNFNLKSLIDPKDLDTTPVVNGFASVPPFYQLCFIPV
Assay: not given
Settings: bti-tn-5b1-4
With `CCN1CCN(c2cc3c(cc2F)c(=O)c(C(=O)O)cn3C2CC2)CC1` [ENROFLOXACIN] the IC50 was “Not Active” and the Ki was “Not Active”.
For `CC(C)Cc1ccc([C@H](C)C(=O)O)cc1` [DEXIBUPROFEN], the IC50 was “Not Active” and the Ki was “Not Active”.
In the case of `CO[C@H]1O[C@@H]2O[C@@]3(C)CC[C@H]4[C@H](C)CC[C@@H]([C@H]1C)[C@@]24OO3`, the IC50 is reported as “Not Active” and the Ki is reported as “Not Active”.
For `Nc1ccc(C(=O)O)c(O)c1` [AMINOSALICYLIC ACID], the IC50 was “Not Active” and the Ki was “Not Active”.
For `Nc1nc(F)nc2c1ncn2[C@@H]1O[C@H](CO)[C@@H](O)[C@@H]1O` [FLUDARABINE], the IC50 was “Not Active” and the Ki was “Not Active”.
